pEC50, pIC50: −log10 of the molar value. Values after ≈ are worked out from the molar mass of the structure shown.
Key:
[1] = Lipophilicity, logD of compound; assay type: physicochemical; conditions: octanol/water
[2] = physchem; conditions: buffer
[3] = buffer
[4] = physchem; conditions: octanol/water
[5] = tested on: Human immunodeficiency virus 1; test: Antiviral activity against HIV-1; assay type: functional, organism-based
[6] = tested on: MCF7; test: Antiproliferative activity against ER-positive human MCF7 cells after 48 hrs by MTT assay; assay type: functional, cell-based; conditions: MCF7, 48 h
[7] = Permeability of compound in human Caco-2 cells; assay type: ADME, cell-based; conditions: read-out: permeability
[8] = biological target: Plasmepsin II (Plasmodium falciparum, UniProt P46925); test: Inhibition of Plasmodium falciparum 3D7 plasmepsin II
Sequence of Plasmepsin II (P46925 whole entry): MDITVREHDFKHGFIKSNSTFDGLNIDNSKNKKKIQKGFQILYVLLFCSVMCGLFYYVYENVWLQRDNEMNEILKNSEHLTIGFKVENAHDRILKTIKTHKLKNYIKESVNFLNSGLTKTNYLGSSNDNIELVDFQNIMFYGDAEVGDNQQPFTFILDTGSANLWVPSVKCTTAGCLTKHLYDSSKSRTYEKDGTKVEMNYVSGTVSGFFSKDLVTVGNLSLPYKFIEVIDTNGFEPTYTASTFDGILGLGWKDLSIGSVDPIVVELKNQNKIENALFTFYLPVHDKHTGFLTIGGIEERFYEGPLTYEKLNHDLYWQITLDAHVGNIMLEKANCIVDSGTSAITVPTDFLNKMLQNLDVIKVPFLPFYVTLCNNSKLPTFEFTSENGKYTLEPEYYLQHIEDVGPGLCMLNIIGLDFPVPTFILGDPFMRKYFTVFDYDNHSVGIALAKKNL

[9] = tested on: Mycobacterium tuberculosis; test: microbe, parasite or virus in culture

SMILES | solubility thermodynamic [2] | other results
CC(C)(C)OC(=O)N1CCN(c2ncc(OCc3ccncc3C#N)cn2)CC1 | 24 µM | logD [1]: 3.3
CC(=O)Nc1nc2c(Oc3cc(-c4ccc(C(F)(F)F)cc4)ncn3)cccc2s1 [AMG-517] | 1 µg/mL | –
Cc1nc(N2CCN(c3ncc(OCc4ccncc4C#N)cn3)CC2)no1 | – | logD [1]: 4
COc1c(C(=O)Nc2ccc(NS(C)(=O)=O)cc2)cc(N2CCC(=O)NC2=O)cc1C(C)(C)C | 1500 µg/mL | –
c1cn2cc(-c3ccc4cn[nH]c4c3)nc(Nc3ccc(N4CCOCC4)cc3)c2n1 [ENTOSPLETINIB] | 28 µg/mL | –
NC(=O)Nc1ccc2c(c1)/C(=C/c1cc(-c3ccccn3)c[nH]1)C(=O)N2 | 29 µg/mL | –
COc1cc2c(cc1OC)CN(C(=O)/C=C/c1c(-c3ccccc3)n(C)c3ncccc13)CC2 | – | Therm_solubility [3]: 141 µg/mL
Cc1c(-c2ccc(Cc3ccc(OC(F)(F)F)cc3)cc2)[nH]c2cc(Cl)ccc2c1=O | – | logP [4]: 6.4
Oc1nc2cc(Cl)c(Cl)c(Cn3cncn3)c2nc1O | 10 µg/mL | –
NC(=O)NCCSc1nc(N)nc(-c2c(Cl)cc3c4c(cccc24)COC3)n1 | 773 µM | –
COc1ccc(CNc2c3c(nc4ccc(C#N)cc24)CCN(C(C)=O)C3)cc1Cl | 500 µM | –
O=C(C(=O)N1CCN(C(=O)c2ccccc2)CC1)c1c[nH]c2c(-n3ccnn3)ncc(F)c12 | 7 µg/mL | pEC50 [5]: 11.22
Cn1nnc(-c2ccc(-c3ccc(N4C[C@H](COP(=O)(O)O)OC4=O)cc3F)cn2)n1 [TEDIZOLID PHOSPHATE] | 50000 µg/mL | –
C=CCNc1nc2c(s1)CC(C)(C)[C@H]1[C@H](O)[C@@]3(O)OC[C@@]21[C@@H]1CC[C@H]2C(=C)C(=O)[C@]13[C@@H]2O | 81200 µg/mL | pIC50 [6]: 6.70
O=C1NC(=O)C(c2ccccc2)(c2ccccc2)N1 [PHENYTOIN] | – | Therm_solubility [3]: 20000 µg/mL
O=C1CCC(N2C(=O)c3ccccc3C2=O)C(=O)N1 (stereo unspecified) [THALIDOMIDE] | 52 µg/mL | –
CC1c2ccc3c(c2OC(=O)C1CO)[C@@H](OC(=O)[C@@]12CC[C@@](C)(C(=O)O1)C2(C)C)[C@@H](OC(=O)[C@@]12CC[C@@](C)(C(=O)O1)C2(C)C)C(C)(C)O3 (stereo partly specified) | – | logP [4]: 3.62; pEC50 [5]: 8.40
FC(F)(F)c1c(N2CCC(c3ccccc3)CC2)ccn2c(CC3CC3)nnc12 | – | Papp [7]: 12 ×10⁻⁶ cm/s; logP [4]: 4.6
Cc1c(-c2ccc(-c3ccc(OC(F)(F)F)cc3)nc2)[nH]c2ccccc2c1=O | – | logP [4]: 4.2
COc1cnc(-n2cnc(C)n2)c2[nH]cc(C(=O)C(=O)N3CCN(C(=O)c4ccccc4)CC3)c12 | 147 µg/mL | –
O=C(NCCN1CCCC1)c1cc(-c2ccc(CN3CCOCC3)cc2)nc2ccc(F)cc12 [CABAMIQUINE] | 216 µM | –
CN(C)CCNC(=O)c1cccc(-c2c[nH]c(/C=C3\C(=O)Nc4ccc(NC(N)=O)cc43)c2)c1 | 13 µg/mL | –

SMILES | solubility thermodynamic [2] | other results
CN1C(=O)CCC(N2C(=O)c3ccccc3C2=O)C1=O (stereo unspecified) | 276 µg/mL | –
C/C(=C1/C(=O)Nc2ccc(NC(N)=O)cc21)c1cc(CNC(=O)C2CCNCC2)c[nH]1 | 17 µg/mL | –
COc1cnc(-n2cnc(C)n2)c2c1c(C(=O)C(=O)N1CCN(C(=O)c3ccccc3)CC1)cn2COP(=O)(O)O [FOSTEMSAVIR] | 11000 µg/mL | –
CCCN(CCOC)c1cc(C)nc2c(-c3ccc(OC)cc3OC)c(C)nn12 | 10000 µg/mL | logD [1]: 2.78
C=C1C(=O)[C@]23[C@H](O)[C@H]1CC[C@H]2[C@@]12CO[C@]3(O)[C@@H](O)[C@@H]1C(C)(C)Cc1sc(NC)nc12 | 42400 µg/mL | pIC50 [6]: 5.89
Cc1sc(N2CCNCC2)nc1CCOc1ccc(CC(Nc2ccccc2C(=O)c2ccccc2)C(=O)O)cc1 (stereo unspecified) | 10000 µg/mL | –
O=c1cc(-c2c(F)cccc2F)oc2ccc3ccccc3c12 | 153 µg/mL | –
COc1ccc2c3c(c4cc(OC)c(OC)cc4c2c1)C[C@H]1CCCN1C3 [(-)-ANTOFINE] | – | Therm_solubility [3]: 1 µg/mL
C[C@H]1[C@H](COP(=O)([O-])[O-])OC(=O)N1c1ccc(-c2ccc([C@@H]3CN(C)C(=O)O3)nc2)cc1O.[Na+].[Na+] | 227000 µg/mL | –
CCn1nc(-c2cccc(Cl)c2)nc2c(=O)n(C)c(=O)nc1-2 | 28.5 µM | –
CCCCCCCc1c(C)nc2cc(OC)ccc2c1O | 2 µM | logD [1]: 3.69
NC(=O)Nc1ccc2c(c1)/C(=C/c1ccc[nH]1)C(=O)N2 | 2000 µg/mL | –
CCCCCn1cc(C(=O)NC23CC4CC(CC(C4)C2)C3)c(=O)c2ccc(F)cc21 | 0.014 µg/mL | –
COc1cc2[nH]c(C)c(-c3ccccc3)c(=O)c2cc1Cl | 6 µM | logD [1]: 1.65
Cc1sc(-c2ccccc2)nc1CCOc1ccc(CC(Nc2ccccc2C(=O)c2ccccc2)C(=O)O)cc1 (stereo unspecified) | 1 µg/mL | –
C=C1C(=O)[C@]23[C@H](O)[C@H]1CC[C@H]2[C@@]12CO[C@]3(O)[C@@H](O)[C@@H]1C(C)(C)CC[C@@H]2O [ORIDONIN] | 1290 µg/mL | pIC50 [6]: 5.18
Nc1nc2cc(-c3ccc(CCCc4ccccc4)cc3)cc(CCC(=O)O)c2c(=O)n1CC1CCCO1 (stereo unspecified) | – | Therm_solubility [3]: 0.17 µg/mL; pIC50 [8]: 4.78
Cc1cc(/C=C/C#N)cc(C)c1Oc1nc(Nc2ccc(CN3CCN(S(C)(=O)=O)CC3)cc2)nc(N)c1Br | 30.9 µg/mL | pEC50 [5]: 8.12
Cn1nnc(-c2ccc(-c3ccc(N4C[C@H](CO)OC4=O)cc3F)cn2)n1 [TEDIZOLID] | 136 µg/mL | –
CC1CC(=O)Oc2c1ccc1c2[C@@H](OC(=O)[C@@]23CC[C@@](C)(C(=O)O2)C3(C)C)[C@@H](OC(=O)[C@@]23CC[C@@](C)(C(=O)O2)C3(C)C)C(C)(C)O1 (stereo partly specified) | – | logP [4]: 4.82; pEC50 [5]: 8.82
COc1cc(NCc2cc3cc(Cl)ccc3[nH]c2=O)ccc1C#N | 0.43 µM | –
Cc1cc2ccccc2n1CCNC(=O)c1ccc(-c2nnn[nH]2)cc1 | – | Therm_solubility [3]: 0.257 µM

SMILES | solubility thermodynamic [2] | other results
COc1ccc(-c2oc3cc(O[C@@H]4O[C@H](CO[C@@H]5O[C@@H](C)[C@H](O)[C@@H](O)[C@H]5O)[C@@H](O)[C@H](O)[C@H]4O)cc(O)c3c(=O)c2Br)cc1O | 100000 µg/mL | logP [4]: 0.93
CC(C)(C)OC(=O)N1CCN(c2ncc(OCc3ccc(S(C)(=O)=O)cc3)cn2)CC1 | 0.03 µM | –
C=CC(=O)Nc1cccc(N2C(=O)N(Cc3ccccc3)Cc3cnc(Nc4ccc(N5CCN(C)CC5)cc4OC)nc32)c1 | – | Therm_solubility [3]: 4000 µg/mL
Cn1cc(NC(=O)NC23CC4CC(CC(C4)C2)C3)cn1 | 41.1 µg/mL | MIC [9]: 50 µg/mL (≈ 182 µM)
Cc1sc(N2CCOCC2)nc1CCOc1ccc(CC(Nc2ccccc2C(=O)c2ccccc2)C(=O)O)cc1 (stereo unspecified) | 180 µg/mL | –
CCC1(O)C(=O)OCc2c1cc1n(c2=O)Cc2c-1nc1ccc(O)cc1c2CN(C)C (stereo unspecified) | 1000 µg/mL | –
CC(=O)NC[C@@H]1OC(=O)N2c3ccc(-c4ccc(C#N)nc4)cc3OC[C@@H]12 | 10 µg/mL | –
CCCCCc1ccc(-c2cc(CCC(=O)O)c3c(=O)n(CC4CCCO4)c(N)nc3c2)cc1 (stereo unspecified) | 0.1 µg/mL | pIC50 [8]: 7.30
O=C(Nc1nnc(C2CC2)o1)NC12CC3CC(CC(C3)C1)C2 | 38.3 µg/mL | MIC [9]: 12.5 µg/mL (≈ 41.3 µM)
O=C1NC(c2ccccc2)(c2ccccc2)C(=O)N1COP(=O)([O-])O.[Na+] | 142000 µg/mL | –
Nc1ncc(-c2nc(N3CCOCC3)nc3c2CCN3C(=O)Nc2ccccc2)cn1 | 3 µg/mL | –
CCCOc1ccc(CC(Cc2ccccc2)C(=O)O)cc1CNC(=O)c1ccc(C23CC4CC(CC(C4)C2)C3)cc1 (stereo unspecified) | 1 µg/mL | –
CN(C)CCn1cc(C(=O)NC23CC4CC(CC(C4)C2)C3)c(=O)c2ccc(F)cc21 | 5.6 µg/mL | –
O=c1nc2n(CCCC(F)(F)F)nc(-c3cccc(C(F)(F)F)c3)nc-2c(=O)n1CCC1CC1 | 200 µM | –
Cc1cc(C#N)cc(C)c1Oc1nc(Nc2ccc(C#N)cc2)nc(N)c1Br [ETRAVIRINE] | – | Therm_solubility [3]: 1 µg/mL
CCCCCc1ccc(-c2cc(-c3ccc(C(=O)O)cc3)c3c(=O)n(CC4CCC(c5ccccc5)O4)c(N)nc3c2)cc1 (stereo unspecified) | 0.01 µg/mL | pIC50 [8]: 6.13
Cc1cc(NC(=O)NC23CC4CC(CC(C4)C2)C3)no1 | 25.9 µg/mL | MIC [9]: 27 µg/mL (≈ 98.1 µM)
C=C1C(=O)[C@]23[C@H](O)[C@H]1CC[C@H]2[C@@]12CO[C@]3(O)[C@@H](O)[C@@H]1C(C)(C)Cc1sc(C)nc12 | 4400 µg/mL | pIC50 [6]: 5.59
COc1cc(NCc2cc3cc(C)c(C)cc3[nH]c2=O)ccc1-n1cnnn1 | 0.04 µM | –
Nc1nc2cc(-c3ccc(CCCc4ccccc4)cc3)ccc2c(=O)n1CC1CCC(c2ccccc2)O1 (stereo unspecified) | < 0.01 µg/mL | pIC50 [8]: 5.49
COCCCc1nc(CCOc2ccc(CC(Nc3ccccc3C(=O)c3ccccc3)C(=O)O)cc2)c(C)s1 (stereo unspecified) | 210 µg/mL | –

— ChEMBL document CHEMBL5120754, “Structural modification aimed for improving solubility of lead compounds in early phase drug discovery” (Bioorg Med Chem, 2022)
